From patent US12178210B2, “Insect attractant and killing system” (priority 2020, dated 2024)
Like-named read-outs stand apart in the source and are kept apart here.

Conditions: field, Córdoba, initial amount 15 g, UV8, 1.6 mm orifice
Method: The devices consisted of a pesticide coated insecticide transfer envelope (˜10 mg of deltamethrin) equipped with a hook containing an attractant lure on the inside of the envelope (see FIG. 3). Attractant lures inside Magnet™ ORO were labelled and individually weighed at different periods of time. Qualitative identity of the remaining material was assessed by means of FTIR and compared with standards. Each lure was constructed using polypropylene/calcium carbonate film (UV8) as the membrane and Scotchpak™ (3M) polyester laminate film as the impermeable barrier material and a 1.6 mm ( 1/16 in) diameter spherical punch in the impermeable layer exposing the membrane and an ˜8 mm ( 5/16 in) diameter heat seal around the circumference of the punch (referred to as a ring seal). Each prototype contained 15 g of ammonium carbonate as the volatile insect attractant.
The trials were performed in Córdoba, Spain June-November 2019 where the average temperatures (high/low) are 32/17° C. (90/62° F.) in June, 37/19° C. (98/67° F.) in July, 35/19° C. (95/66° F.) in August, 32/18° C. (90/64° F.) in September, 24/13° C. (76/55° F.) in October, and 18/8° C. (65/47° F.) in November.

N.N.O=C(O)O [Ammonium Carbonate, ammonium carbonate]
Average Mass Loss (day 0 (Jul. 22, 2019)): 0.0890 g/day
Average Mass Loss (day 9 (Jul. 31, 2019)): 0.1082 g/day
Average Mass Loss (day 21 (Aug. 12, 2019)): 0.0948 g/day
Average Mass Loss (day 28 (Aug. 19, 2019)): 0.0976 g/day
Average Mass Loss (day 45 (Sep. 5, 2019)): 0.0498 g/day
Average Mass Loss (day 57 (Sep. 17, 2019)): 0.0111 g/day
Average Mass Loss (day 72 (Oct. 2, 2019)): 0.0191 g/day
Average Mass Loss (day 80 (Oct. 10, 2019)): 0.0299 g/day
Average Mass Loss (day 91 (Oct. 21, 2019)): 0.0001 g/day
Average Mass Loss (day 105 (Nov. 4, 2019)): 0.0046 g/day
